# Tests used:
# [1] = tested on: human lung cancer-derived cell line NCI-H460 having wild-type p53; test: Cell growth inhibition assay (MTT), NCI-H460; assay type: cell-based; conditions: 72 hours
# Description: (§1) An anti-cell test was conducted using two cells (human lung cancer-derived cell line NCI-H460 having wild-type p53 and human colon cancer-derived cell line DLD-1 having mutant p53).
# (§2) Cells of the respective cell lines were suspended in a medium (RPMI1640 medium containing 10% fetal bovine serum) and these suspensions were inoculated in amounts of 500 cells/150 μL/well and 1000 cells/150 μL/well, respectively, to a 96-well multiwell plate. A test compound was dissolved in DMSO and this solution was diluted with medium to prepare a sample solution (DMSO concentration: 1% or lower). On the next day of inoculation, medium containing DMSO nonsupplemented with the test compound (hereinafter, referred to as a DMSO dilution, DMSO concentration: 1% or lower) or the sample solution was added in an amount of 50 μL/well. MTT assay was conducted immediately after addition of the sample solution or the DMSO dilution to the cells and after culture of the cells (after addition of the sample solution or the DMSO dilution) at 37° C. for 72 hours in a 5% CO2 atmosphere. The MTT assay was conducted as shown below.
# (§3) A 5 mg/mL MTT (3-(4,5-dimethylthiazol-2-yl)-2,5-diphenyltetrazolium bromide, Sigma-Aldrich Co., M-2128) solution was prepared using phosphate buffer solutions (Dulbecco's Phosphate-buffered Salines). This MTT solution was added in an amount of 20 μL/well. Then, the plate was cultured at 37° C. for 4 hours in a 5% CO2 atmosphere. The plate was centrifuged at 1200 rpm for 5 minutes and then the culture supernatant was removed by aspiration using a dispenser. DMSO was added in an amount of 150 μL/well to dissolve generated formazan. […] The absorbance of each well was measured under conditions of OD 540 nm and reference 660 nm using a plate reader (SpectraMax PLUS384, Molecular Devices, CA, USA).
# (§4) The OD value measured immediately after addition of the sample solution was defined as S. The OD value measured 72 hours after addition of the sample solution was defined as T. The OD value measured 72 hours after addition of the DMSO dilution was defined as C. […]
# [2] = tested on: human colon cancer-derived cell line DLD-1 having mutant p53; test: Cell growth inhibition assay (MTT), DLD-1; assay type: cell-based; conditions: DLD-1 (mutant p53), 72 hours
# Description: as §1, §2, §3, §4
# Mdm2/p53 binding = target: T1, Mdm2/p53 binding (Homo sapiens, UniProt Q00987, L33E); test: Mdm2/p53 binding assay (HTRF, His-p53 / GST-Mdm2); conditions: His-p53 (aa 1-132) and GST-Mdm2 (aa 25-108, L33E), 6.25 nM each; 25° C., 1 hour
# T1 construct: having Mdm2 amino acids at positions 25 to 108
# T1 sequence (Q00987 25-108 L33E, species assumed): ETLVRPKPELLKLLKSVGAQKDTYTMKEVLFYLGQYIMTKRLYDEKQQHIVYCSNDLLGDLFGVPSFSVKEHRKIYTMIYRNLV
# Description: Next, a test compound was diluted with protein buffer solution containing 10% DMSO, and this test compound dilution was added in an amount of 4 μL/well to the plate.
# These dilutions were added in an amount of 8 μL/well (total reaction solution volume: 20 μl/well). Then, the plate was left at 25° C. for 1 hour.
# C (correction factor)=(A−BI)/D
# The R value calculated from the well supplemented with His-p53, GST-Mdm2, the test compound, and each antibody was defined as R (sample). The R value calculated from the well supplemented with His-p53, GST-Mdm2, and each antibody but without the test compound was defined as R (control). The R value calculated from the well supplemented with GST-Mdm2, the test compound, and each antibody but without His-p53 was defined as R (background). T/C was calculated from the formula shown below. An IC50 value for Mdm2/p53 binding was calculated by sigmoid fitting using Prism (GraphPad Software).
# T/C=(R (sample)−R (background))/(R (control)−R (background))
SMILES,GI50 [1],GI50 [2],IC50 (Mdm2/p53 binding),GI50 ([1]; Homo sapiens),GI50 ([2]; Homo sapiens)
"CC(C)C1=C(C(=O)N2CCC[C@H]2C(=O)N2CCOCC2)SC2=N[C@@](C)(c3ccc(Cl)nc3)[C@@H](c3ccc(Cl)cc3)N21 (single isomer, unassigned; isomer b) [Example 97 (Isomer B)]",2810 nM,> 50000 nM,10 nM,–,–
"CC(=O)N(C)[C@@H](C)CN(C)C(=O)[C@@H]1CCCN1C(=O)C1=C(C(C)C)N2C(=N[C@@](C)(c3ccc(Cl)cc3)[C@H]2c2ccc(Cl)cc2)S1 [Example 73, N-{(2S)-2-[Acetyl(methyl)amino]propyl}-1-{[(5R,6S)-5,6-bis(4-chlorophenyl)-3-isopropyl-6-methyl-5,6-dihydroimidazo[2,1-b][1,3]thiazol-2-yl]carbonyl}-N-methyl-L-prolinamide]",–,–,18 nM,1750 nM,> 50000 nM
"CC(C)C1=C(C(=O)N2[C@@H](C)CC[C@H]2C(=O)N(C)C)SC2=N[C@@](C)(c3ccc(Cl)cc3)[C@@H](c3ccc(Cl)cc3)N21 [Example 112, (5S)-1-{[(5R,6S)-5,6-Bis(4-chlorophenyl)-3-isopropyl-6-methyl-5,6-dihydroimidazo[2,1-b][1,3]thiazol-2-yl]carbonyl}-N,N,5-trimethyl-L-prolinamide]",–,–,–,1380 nM,40700 nM

# — US20090312310A1 (priority 2006, published 2009)
